Measurements: PubChem BioAssay AID403 (SGCOxCompounds, 2006)

Target: Receptor-type tyrosine-protein phosphatase eta (Homo sapiens) (UniProt Q12913)
Test: PTPRJ phosphatase inhibitors, biochemical, human, DiFMUP fluorescence (AID 403)
Settings: recombinant PTPRJ, 25 C, at 50 µM, enzyme 0.05 ng/mL, DTT 5 mM, stronger effect = higher value

Receptor-type tyrosine-protein phosphatase eta (Homo sapiens), sequence (Q12913 whole entry, looked up): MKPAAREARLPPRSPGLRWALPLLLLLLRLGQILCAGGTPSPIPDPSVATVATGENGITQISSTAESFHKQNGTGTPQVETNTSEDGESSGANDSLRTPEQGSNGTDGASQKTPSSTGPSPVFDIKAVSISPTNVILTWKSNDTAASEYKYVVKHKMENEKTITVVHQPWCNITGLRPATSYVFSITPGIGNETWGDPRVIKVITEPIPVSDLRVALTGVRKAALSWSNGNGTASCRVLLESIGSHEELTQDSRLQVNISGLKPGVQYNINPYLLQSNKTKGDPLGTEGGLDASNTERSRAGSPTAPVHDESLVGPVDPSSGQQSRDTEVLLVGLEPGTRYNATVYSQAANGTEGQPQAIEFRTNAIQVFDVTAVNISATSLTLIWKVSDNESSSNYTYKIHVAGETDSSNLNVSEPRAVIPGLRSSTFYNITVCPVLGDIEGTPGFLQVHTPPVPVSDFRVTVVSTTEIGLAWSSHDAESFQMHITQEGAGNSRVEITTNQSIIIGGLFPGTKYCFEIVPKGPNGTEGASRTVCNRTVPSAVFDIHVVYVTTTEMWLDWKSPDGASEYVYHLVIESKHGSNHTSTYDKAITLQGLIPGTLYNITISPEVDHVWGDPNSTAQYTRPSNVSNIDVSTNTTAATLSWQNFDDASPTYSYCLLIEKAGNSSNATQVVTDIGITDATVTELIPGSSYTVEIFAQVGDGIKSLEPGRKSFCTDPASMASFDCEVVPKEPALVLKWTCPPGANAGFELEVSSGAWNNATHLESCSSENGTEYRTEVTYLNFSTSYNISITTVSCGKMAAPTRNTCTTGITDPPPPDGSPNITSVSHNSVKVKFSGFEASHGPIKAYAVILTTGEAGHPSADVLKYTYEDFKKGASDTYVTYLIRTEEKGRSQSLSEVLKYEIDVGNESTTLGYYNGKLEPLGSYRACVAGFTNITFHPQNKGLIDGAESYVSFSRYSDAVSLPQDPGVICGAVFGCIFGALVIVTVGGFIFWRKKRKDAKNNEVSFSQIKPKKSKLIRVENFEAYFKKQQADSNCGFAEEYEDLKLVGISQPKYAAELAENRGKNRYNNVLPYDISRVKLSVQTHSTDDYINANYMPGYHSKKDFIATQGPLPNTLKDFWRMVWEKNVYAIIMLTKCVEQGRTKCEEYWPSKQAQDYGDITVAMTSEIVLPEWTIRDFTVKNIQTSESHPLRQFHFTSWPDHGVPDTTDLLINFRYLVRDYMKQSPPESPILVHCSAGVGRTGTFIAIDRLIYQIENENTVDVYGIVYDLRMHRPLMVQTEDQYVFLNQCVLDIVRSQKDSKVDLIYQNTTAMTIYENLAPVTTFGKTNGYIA

Compound | inhibition [%]
CN(N=O)c1ccc(O)c(O)c1 | 97
Cc1c(Cl)c(C)c([N+](=O)[O-])c(O)c1C=Nc1ccc(O)cc1C(=O)O | 95
COc1ccc(-c2nc3cc(N=Cc4cc(C(=O)O)ccc4O)ccc3o2)cc1 | 67
OO.OO.[K+].[O]=[V].c1ccc(-c2ccccn2)nc1 | 98
[NH-]CO.[NH-]CO.[NH-]CO.[NH-]CO.[O]=[V][O][V]=[O] | 100
O=C([O-])c1ccccn1.OO.OO.[K+].[K+].[O]=[V] | 100
CC(C)(c1ccc(NS(=O)(=O)C(F)(F)F)cc1)c1ccc(C(C)(C)c2ccc(NS(=O)(=O)C(F)(F)F)cc2)cc1 | 66
O=C(O)c1ccc(O)c(C=Nc2ccc3oc(-c4ccccc4)nc3c2)c1 | 52
O=C(O)c1ccc(O)cn1.OO.[O]=[V] | 92
Cc1ccc(N=Cc2cc(C(=O)O)ccc2O)c(O)c1 | 55
O=C(O)c1ccc(O)c(N2C(=O)Nc3ccccc3N2O)c1 | 82
O=C(O)c1ccc([O-])cn1.OO.OO.[K+].[K+].[O]=[V] | 99
O=C1NC(=S)S/C1=C\C=C\c1ccc([N+](=O)[O-])o1 | 50
